Our source for the IC50, Activity and inhibition values is ChEMBL document CHEMBL5120939, “Novel Isoindolinone-Based Analogs of the Natural Cyclic Peptide Fenestin A: Synthesis and Antitumor Activity” (ACS Med Chem Lett, 2022).

The structures appear in SMILES notation. Calls of active or inactive are those of the source. No cut-off for these calls is given here. Numbered stars: 1 amine (or outer) side, 2 acyl side, 3 side chain; on linkers, the order of the positions; unused ones are H or OH. Square brackets hold non-standard residues; d marks the D form. Peptide text beside a SMILES is read from it. X1 = O=C1c2ccccc2[C@@](O)(CN(Cc2ccccc2)[*:1])N1CC(=O)[*:2]; X2 = O=C1c2ccccc2[C@](O)(CN(Cc2ccccc2)[*:1])N1CC(=O)[*:2]; Thz = O=C(O)[C@@H]1CSCN1 Some results are limits rather than exact numbers.

One may read the IC50 as the point on the concentration scale where inhibition reaches its midpoint.

The test system of series [1] is HepG2. The experiment in a line: Antitumor activity against human HepG2 cells assessed as inhibition of cell growth incubated for 48 hrs by MTT assay. It is filed as functional, cell-based. Conditions: HepG2, 48 h. In general terms: Tetrazolium assays rely on reduction of a dye to a coloured formazan, in cell work by metabolically active cells.
A short description of series [2]: Cytotoxicity against mouse L929 cells assessed as cell growth inhibition incubated for 48 hrs by MTT assay. Type of series: toxicity, cell-based.
The subject of series [3] is HeLa. The experiment in a line: cells. The conditions noted are these: Homo sapiens, 48 h.
Description: Antitumor activity against human HeLa cells assessed as inhibition of cell growth incubated for 48 hrs by MTT assay
Series [4] relates to HeLa. Put plainly: Effect on cell morphology in human HeLa cells assessed as decrease in cell contact at 26.1 uM incubated for 48 hrs by fluorescent inverted microscopic analysis. It is filed as functional, cell-based.
Series [5] relates to HeLa. Put plainly: Upregulation of cytochrome C expression in human HeLa cell cytosol at 6.2 to 24.6 uM incubated for 48 hrs by Western blotting analysis. Type of series: functional, subcellular. Conditions: dose 6.2-24.6 µM. For orientation: In western blotting, separated proteins are transferred to a membrane and probed.
Series [6] has as its system HeLa. Put plainly: Induction of mitochondrial membrane potential loss in human HeLa cells assessed as decrease in fluorescence intensity at 6.2 to 24.6 uM incubated for 12 to 48 hrs by Rhodamine 123 staining based flow cytometric analysis. Type of series: functional, cell-based. The conditions noted are these: dose 6.2-24.6 µM, time 12-48 hrs. Background: Flow cytometry measures light scatter and fluorescence of single cells or particles in a stream.

The test system of series [7] is HeLa. Put plainly: Antitumor activity against human HeLa cells assessed as inhibition of lactate dehydrogenase activity at 37.5 to 200 uM incubated for 48 hrs by Lactate dehydrogenase activity assay. It is filed as functional, cell-based. The conditions noted are these: dose 37.5-200 µM.
Series [8] has as its system HeLa. Put plainly: Downregulation of MDM2 protein expression in human HeLa cells at 6.2 to 24.6 uM incubated for 48 hrs by Western blotting analysis. Type of series: functional, cell-based. The conditions noted are these: dose 6.2-24.6 µM.
The test system of series [9] is HeLa. Put plainly: Effect on cell morphology in human HeLa cells assessed as appearance of round cells at 26.1 uM incubated for 12 to 24 hrs by scanning electron microscopic analysis. It is filed as functional, cell-based. Conditions: time 12-24 hrs.
The test system of series [10] is HepG2. The experiment in a line: Effect on cell morphology in human HepG2 cells assessed as decrease in cell contact at 26.1 uM incubated for 48 hrs by fluorescent inverted microscopic analysis. It is filed as functional, cell-based.
For series [11], the system named is HeLa. The experiment in a line: Effect on cell morphology in human HeLa cells assessed as complete disruption at 26.1 uM incubated for 48 hrs by scanning electron microscopic analysis. Type of series: functional, cell-based.
In series [12] the test system is HeLa. The experiment in a line: Effect on cell morphology in human HeLa cells assessed as disappearance of finger like protrusions at 26.1 uM incubated for 12 to 24 hrs by scanning electron microscopic analysis. Type of series: functional, cell-based. Conditions: time 12-24 hrs.
For series [13], the system named is HeLa. The experiment in a line: Effect on cell morphology in human HeLa cells assessed as cell shrinkage at 26.1 uM incubated for 48 hrs by fluorescent inverted microscopic analysis. It is filed as functional, cell-based.
For series [14], the system named is HeLa. The experiment in a line: Upregulation of p53 protein expression in human HeLa cells at 6.2 to 24.6 uM incubated for 48 hrs by Western blotting analysis. Type of series: functional, cell-based. The conditions noted are these: dose 6.2-24.6 µM.
Series [15] has as its system HeLa. Put plainly: Effect on intracellular calcium ion concentration in human HeLa assessed as increase in fluorescence intensity at 12.3 uM by Fluo-3 AM staining based flow cytometric analysis. It is filed as functional, cell-based.
Series [16] has as its system HepG2. Put plainly: Effect on cell morphology in human HepG2 cells assessed as cell shrinkage at 26.1 uM incubated for 48 hrs by fluorescent inverted microscopic analysis. Type of series: functional, cell-based.
In series [17] the test system is HeLa. The experiment in a line: Induction of mitochondrial membrane potential loss in human HeLa cells assessed as decrease in fluorescence intensity […] at 12.3 uM by Rhodamine 123 staining based flow cytometric analysis. Type of series: functional, cell-based. The conditions noted are these: time 12-48 hrs, TDE = time-dependent effect.
Series [18] relates to HeLa. The experiment in a line: Induction of cell cycle arrest in human HeLa cells assessed as accumulation at G2/M phase at 12.3 uM by RNAse A/PI staining based flow cytometric analysis. It is filed as functional. The conditions noted are these: time 12-48 hrs, TDE = time-dependent effect.
Series [19] deals with HeLa. The experiment in a line: Antitumor activity against human HeLa cells assessed as inhibition of cell growth by MTT assay. It is filed as functional, cell-based.

Turning to `CC[C@H](C)[C@@H]1NC(=O)[C@H](CC(C)C)NC(=O)[C@@H]2CSCN2C(=O)CN2C(=O)c3ccccc3[C@]2(O)CN(Cc2ccccc2)C(=O)[C@@H]2CSCN2C1=O`, the results for the IC50 in the series with HepG2 [1] and in the series with HeLa [3] were 27.3 µM and 69.3 µM, respectively. In addition, the IC50 at 48 h in [2] turned out to be 293 µM.

As to `CC[C@H](C)[C@@H]1NC(=O)[C@H](CC(C)C)NC(=O)[C@@H]2CSCN2C(=O)[C@H]2CSCN2C(=O)CN2C(=O)c3ccccc3[C@@]2(O)CN(Cc2ccccc2)C1=O`, the result in the series with HeLa [4], in the series with HeLa [5], in the series with HeLa [6], in the series with HeLa [8], in the series with HeLa [9] and in the series with HepG2 [10] was Active. Further, the outcome with HeLa [11], in the series with HeLa [12], in the series with HeLa [13], with HeLa [14], in the series with HeLa [15] and with HepG2 [16] was Active. Moreover, the inhibition entry in the series on HeLa [7] is “Active”. For the same molecule, the Activity result in the series on HeLa [17] and in the series on HeLa [18] was “Tde” throughout.

For `COc1cccc2c1C(=O)c1c(O)c3c(c(O)c1C2=O)C[C@@](O)(C(=O)CO)C[C@@H]3O[C@H]1C[C@H](N)[C@H](O)[C@H](C)O1` [DOXORUBICIN], the IC50 with HepG2 [1] was 73.5 µM. The 50% inhibitory concentration (IC50) at 48 h in series [2] worked out at 326 µM.

Regarding `CC[C@H](C)[C@@H]1NC(=O)[C@H](CC(C)C)NC(=O)CN2C(=O)c3ccccc3[C@@]2(O)CN(Cc2ccccc2)C(=O)[C@@H]2CSCN2C(=O)[C@@H]2CSCN2C1=O`, the values for the IC50 in the series with HepG2 [1] and in the series with HeLa [3] were 49 µM and 82.2 µM, respectively. Further, the IC50 at 48 h in series [2] stood at 274 µM.

With `CC[C@H](C)[C@@H]1NC(=O)[C@H](CC(C)C)NC(=O)[C@@H]2CCCN2C(=O)[C@@H]2CCCN2C(=O)CN2C(=O)c3ccccc3[C@]2(O)CN(Cc2ccccc2)C1=O` (cyclo(I[X2]PPL)), the IC50 was found to be 40.3 µM with HepG2 [1], 36.5 µM in the series on HeLa [19] and 36.5 µM with HeLa [3]. In addition, the 50% inhibitory concentration (IC50) at 48 h in [2] is more than 400 µM.

As to `CC[C@H](C)[C@@H]1NC(=O)CN2C(=O)c3ccccc3[C@]2(O)CN(Cc2ccccc2)C(=O)[C@H](CC(C)C)NC(=O)[C@@H]2CCCN2C(=O)[C@@H]2CCCN2C1=O` (cyclo(IPPL[X2])), the results for the IC50 in the series with HepG2 [1] and with HeLa [3] were 37.7 µM and 32.7 µM, respectively. Moreover, the IC50 at 48 h in series [2] is more than 400 µM.

For `CC[C@H](C)[C@@H]1NC(=O)[C@H](CC(C)C)NC(=O)[C@@H]2CSCN2C(=O)[C@@H]2CSCN2C(=O)CN2C(=O)c3ccccc3[C@@]2(O)CN(Cc2ccccc2)C1=O`, the IC50 was determined as 24.7 µM in the series with HepG2 [1] and 12.3 µM with HeLa [3]. For the same molecule, in [2], the IC50 at 48 h came to 70.9 µM.

In the case of `CC[C@H](C)[C@@H]1NC(=O)CN2C(=O)c3ccccc3[C@]2(O)CN(Cc2ccccc2)C(=O)[C@H](CC(C)C)NC(=O)[C@@H]2CSCN2C(=O)[C@@H]2CSCN2C1=O` (cyclo(I[Thz][Thz]L[X2])), the IC50 was found to be 26.9 µM in the series on HepG2 [1] and 23.7 µM with HeLa [3]. For the same molecule, the half-maximal inhibitory concentration (IC50) at 48 h in series [2] was more than 400 µM.

In the case of `CC[C@H](C)[C@@H]1NC(=O)[C@H](CC(C)C)NC(=O)[C@@H]2CCCN2C(=O)CN2C(=O)c3ccccc3[C@]2(O)CN(Cc2ccccc2)C(=O)[C@@H]2CCCN2C1=O` (cyclo(IP[X2]PL)), the IC50 is 33.5 µM with HepG2 [1], 28.2 µM in the series with HeLa [19] and 28.2 µM in the series with HeLa [3]. Moreover, in [2], the IC50 at 48 h was more than 400 µM.

Turning to `CC[C@H](C)[C@@H]1NC(=O)[C@H](CC(C)C)NC(=O)CN2C(=O)c3ccccc3[C@@]2(O)CN(Cc2ccccc2)C(=O)[C@@H]2CCCN2C(=O)[C@@H]2CCCN2C1=O` (cyclo(IPP[X1]L)), the IC50 in the series on HepG2 [1] came to 93.3 µM; in the series with HeLa [3], 105 µM. Besides, the IC50 at 48 h in [2] was 284 µM.
